Laboratory results from patent publication US5466716A, “Liposomal trimethylsphingosine” (The Biomembrane Institute, priority 1994, dated 1995).
Entries after “also recorded” stand apart in the source; their conditions may differ.

How the values were obtained:
neutrophils [1] = test: neutrophil O2 consumption (Clark-type electrode); type: cell-based, human
Description: FIG. 14 depicts the effect of various reagents on neutrophil O2 consumption. The Clark-type electrode and oxygen monitor were calibrated using air-saturated water according to the manufacturer's recommendations (Y.S.I. Inc., Yellow Springs, Ohio. A reading of 100% was considered to be equal to the concentration of oxygen in air-saturated water.
O2 consumption was measured using a Clark-type electrode with a Y.S.I. model P300 biological oxygen monitor and a micro oxygen chamber assembly (Y.S.I. Inc., Yellow Springs, Ohio). Assays were performed at 37° C. with ≈6×10^6 neutrophils per ml in a total volume of 600 μl. The cell suspensions, in Eppendorf test tubes, were warmed at 37° C. for several minutes before being applied to the microchamber. Effectors were injected carefully using a Hamilton syringe and stirred well with a microstirrer at a speed of ≈240 rpm. The cell suspensions were pre-incubated with effectors for 5 min prior to addition of PMA to a final concentration of 1.0 μM.

[2] = tested on: human gastric cancer cell line MKN-74; test: tritiated thymidine incorporation, tumor cell growth (MKN-74); type: cell-based; conditions: MKN-74, FIG. 2C
From the text: (§1) FIGS. 2A-2C show the effect of sphingosine derivatives on human tumor cell growth. In FIG. 2A the growth of human colonic cancer cell line COLO-205 was monitored. In FIG. 2B the growth of human lung cancer cell line LU-65 was monitored. In FIG. 2C the growth of human gastric cancer cell line MKN-74 was monitored. In each Figure the ordinate represents the percent inhibition of tritiated thymidine incorporation, the solid circles represent sphingosine, the open circles represent N,N-dimethylsphingosine and the triangles represent N,N,N-trimethylsphingosine.
(§2) An in vitro assay relying on tritiated thymidine incorporation can be used to ascertain the effect of various compounds on cell proliferation. Briefly, tumor cells are seeded in flat bottom 96 well plates (Corning, N.Y.) at a concentration of 2×10^4 cells per well. The cells are cultured for 2 days in DMEM containing various concentrations of sphingoid, which is added as a PBS solution. The medium then is supplemented with tritiated thymidine at a concentration of 0.5 μCi per well. Following a six hour incubation the cells are collected using the PHD Cell Harvester (Cambridge Technology, Cambridge, Mass.) and amounts of incorporated radioactivity are determined after adding a suitable cell lysing agent and scintillation cocktail, such as ScintiVerse BD (Fisher Scientific, Fairlawn, Calif.) which performs both functions. […]

[3] = tested on: human lung cancer cell line LU-65; test: tritiated thymidine incorporation, tumor cell growth (LU-65); type: cell-based; conditions: LU-65, FIG. 2B
From the text: as §1, §2

40 kD platelet protein = test: thrombin-induced phosphorylation of 40 kD platelet protein; type: cell-based, human; conditions: thrombin stimulation, FIG. 9
Description: FIG. 9 depicts the inhibition of γ-thrombin-induced phosphorylation of 40 kD protein of human platelets by sphingosine and TMS. Human platelets (3×10^5 /μl) were prelabeled with ^32 p-phosphoric acid (0.2 mCi/ml) in Tyrode's buffer containing 22 mM trisodium citrate, 1 mg/ml glucose and 3.5 mg/ml bovine serum albumin (pH 6.5) for 75 minutes at 37° C. After centrifugation (600× g, 10 minutes), the platelets were resuspended in Tyrode's buffer (pH 7.2), aliquoted in plastic tubes and pre-incubated at 37° C. for 5 minutes with various concentrations of sphingosine and its derivatives (added as 50% ethanol solutions with a final ethanol concentration of 0.5%). Platelets then were stimulated with thrombin […]. The reactions were stopped after 30 seconds by the addition of 5× sample buffer, the samples were boiled and loaded onto 10% SDS-polyacrylamide gels. The proteins were separated electrophotectically. Lane 1-control without stimulation by thrombin; Lane 2-stimulation by 1 μU/ml of γ-thrombin; Lane 3-stimulated by thrombin but added with 1 μM TMS; Lane 4-stimulated by thrombin but added with 10 μM TMS; Lane 5-stimulated by thrombin but added with 20 μM TMS; Lane 6-stimulated by thrombin but added with 30 μM TMS; Lane 7-stimulated by thrombin but added with 20 μM sphingosine; Lane 8-stimulated by thrombin but included addition of 20 μM N,N-dimethylsphingosine.

neutrophils [4] = test: neutrophil superoxide production (cytochrome C reduction); type: cell-based, human
Description: FIGS. 13A and 13B depict the effect of various reagents on neutrophil function. In FIG. 13A, the effect of TMS on O2 production was determined by monitoring the superoxide-mediated reduction of cytochrome C (Clifford, Meth. Enz., 105, 393, 1981) by 10^6 neutrophils/ml at OD550 and an extinction coefficient of 21000/M/cm in a Beckman DU-50 spectrophotometer. The cells were preincubated for 10 minutes at room temperature with the noted concentrations of TMS prior to stimulation with 1 μM PMA (time 0).
Human neutrophils were obtained from normal male adults. Heparinized peripheral blood was mixed gently with an equal amount of 1% dextran solution in PBS in a 60 ml injection syringe. The mixture was allowed to sit vertically for 60 to 90 minutes at 37° C. The upper phase, which is rich in white blood cells, was mounted gently on the same volume of Ficoll-Paque (Pharmacia LKB, Uppsala, Sweden) in Falcon 2095 plastic test tubes (Becton Dickinson Labware, Lincoln Park, N.J.). Centrifugation at 450 g for 30 min at 4° C. brought the neutrophils to the bottom of the tubes. The upper phase and interface, which contains lymphocytes, were removed carefully by aspiration.
Superoxide production by neutrophils was quantitated by monitoring superoxide-mediated reduction of cytochrome C (Clifford, supra, in which the reduction is manifest as an increase in absorbance at 550 nm at an extinction coefficient of 21000/M/cm). Measurements were carried out with a Beckman DU-50 spectrophotometer at 37° C. using ≈1×10^6 neutrophils per ml. The cells were allowed to equilibrate for 10 min with TMS, or other effectors, prior to addition of 1 μM of PMA.

CCCCCCCCCCCCC/C=C/[C@@H](O)[C@H](CO)[N+](C)(C)C [TMS, N,N,N-trimethylsphingosine]
neutrophil O2 consumption (neutrophils [1]; Example 6): noted effect | inhibition of PMA-dependent enhancement of O2 consumption (neutrophils [1]; PMA, FIG. 14): inhibited strongly | inhibition of tumor cell growth [2]: superior to sphingosine; also recorded: showed an advantage over DMS | inhibition of tumor cell growth [3]: superior to sphingosine; also recorded: showed an advantage over DMS | inhibition of phosphorylation of the 40 kD platelet protein (40 kD platelet protein): inhibits phosphorylation of the 40 kD platelet protein | inhibition of oxyradical production (neutrophils [4]; 15 μM, FIG. 13B): inhibited immediately | inhibition of superoxide production (neutrophils [4]; 20 μM): completely abolishes superoxide production | neutrophil superoxide production (neutrophils [4]; Example 5): profound effect | inhibition of superoxide production (neutrophils [4]; dose-dependence, FIGS. 13A and 13B): inhibited by TMS in a dose-dependent manner
